Test results from the C3SDB collision cross section collection.

Settings: instrument: TW, calibrated with polyalanine

SMILES | collision cross section (N2) ([M+H]+) | collision cross section (N2) ([M+NH4]+) | also measured
CC[C@H](C)[C@H]1C(=O)O[C@H](C(C)C)C(=O)N(C)[C@@H](C(C)C)C(=O)O[C@H](C(C)C)C(=O)N(C)[C@@H](C(C)C)C(=O)O[C@H](C(C)C)C(=O)N1C [Enniatin B1] | 246.4 Å² | 253 Å² | collision cross section (N2) ([M+K]+): 254.7 Å²; collision cross section (N2) ([M+Na]+): 253.4 Å²
CC(=O)O[C@@H]1[C@@H](O)[C@H]2O[C@@H]3C=C(C)C(=O)[C@@H](O)[C@]3(CO)[C@]1(C)[C@]21CO1 [Fusarenon X] |  |  | collision cross section (N2) ([M+H3C2O2]-): 195 Å²
CC[C@H](C)[C@@H]1NC(=O)C(C(C)=O)=C1O [Tenuazonic acid] | 135 Å² |  | 
CC(=O)OC[C@]12C[C@H](OC(=O)CC(C)C)C(C)=C[C@H]1O[C@@H]1[C@H](O)[C@@H](OC(C)=O)[C@@]2(C)[C@]12CO2 [T-2 toxin] |  | 214 Å² | 
C[C@H]1CCCC(=O)CCC/C=C/c2cc(O)cc(O)c2C(=O)O1 [Zearalenone] |  |  | collision cross section (N2) ([M-H]-): 170 Å²
CC(C)C[C@@H]1NC(=O)[C@H](C)N(C)C(=O)CNC(=O)/C(=C/c2ccccc2)N(C)C1=O [Tentoxin] | 202 Å² |  | 
C=C(C)[C@H]1O[C@H]2CC[C@@]3(C)[C@@](O)(CC[C@H]4[C@@H]5OC(C)(C)[C@H]6C[C@@H]7C(=C)Cc8c(Cl)cc9[nH]c(c5c9c8[C@@]76O)[C@@]43C)[C@]23O[C@@H]3[C@H]1O [Penitrem A] | 253 Å² |  | 
COc1cc2c(c3oc(=O)c4c(c13)CCOC4=O)[C@@H]1CCO[C@@H]1O2 [Aflatoxin G2] | 166 Å² |  | collision cross section (N2) ([M+K]+): 181 Å²; collision cross section (N2) ([M+Na]+): 176.4 Å²
CC(=O)OC[C@]12C[C@H](O)C(C)=C[C@H]1O[C@@H]1[C@H](O)[C@@H](OC(C)=O)[C@@]2(C)[C@]12CO2 [Neosolaniol] |  | 198 Å² | 
CC(=O)OC[C@]12CCC(C)=C[C@H]1O[C@@H]1[C@H](O)[C@@H](OC(C)=O)[C@@]2(C)[C@@]12CO2 [Diacetoxyscirpenol] |  | 192 Å² | 
